Data: patent US20120010075A1 (priority 2009, published 2012)

Assays:
[1] = system: Leptosphaeria nodorum (LEPTNO); experiment: In vitro fungitoxicity of hydrazones with and without copper towards Leptosphaeria nodorum (Example 26); assay type: cell-based; conditions: test compound Concn. 0.05 μg/mL, 72 h at 25° C.; for inhibition of growth at 0.05 µg/mL: Parastagonospora nodorum, 72 h, copper-minus medium, read-out: LEPTNO % Inhn. Minus Copper Observed; for LEPTNO % Inhn. Plus Copper Observed: copper-plus medium (CuCl2 10 μM)
[2] = system: Phytophthora infestans; assay type: in vivo, Phytophthora infestans on tomato; conditions: hydrazone 50 ppm with 50 μM CuCl2.2H2O, applied 24 h before inoculation; assessed 7 days after inoculation; tomato late blight

SMILES	inhibition of growth at 0.05 µg/mL [1] [%]	LEPTNO % Inhn. Plus Copper Observed [1] [%]	melting point [°C]	TLB % Control [2] [%]
C/C(=N\NC(=O)c1ccccc1)c1cc(Br)cc(Br)c1O [Example 539]	1.6	98.0	242 to 245	100.0
C/C(=N\NC(=O)c1ccccc1C)c1cc(Br)cc(Br)c1O [Example 540]	0	97.5	221 to 222	95.0
C/C(=N\NC(=O)c1cccc(C)c1)c1cc(Br)cc(Br)c1O [Example 541]	0	97.5	236 to 238	93.0
C/C(=N\NC(=O)c1ccc(C)cc1)c1cc(Br)cc(Br)c1O [Example 542]	0	95.8	258 to 259	100.0
C/C(=N\NC(=O)c1ccccc1Cl)c1cc(Br)cc(Br)c1O [Example 543]	1.3	93.9	207 to 209	100.0
C/C(=N\NC(=O)c1cccc(Cl)c1)c1cc(Br)cc(Br)c1O [Example 544]	6.9	97.6	255 to 256	97.0
C/C(=N\NC(=O)c1ccc(Cl)cc1)c1cc(Br)cc(Br)c1O [Example 545]	19.6	97.9	255 to 258	95.0
COc1ccc(C(=O)N/N=C(\C)c2cc(Br)cc(Br)c2O)cc1 [Example 546]	7.6	97.7	247 to 248	100.0
C/C(=N\NC(=O)c1ccc(Br)cc1)c1cc(Br)cc(Br)c1O [Example 547]	10.8	97.7	264 to 266	88.0
C/C(=N\NC(=O)c1ccc(C(F)(F)F)cc1)c1cc(Br)cc(Br)c1O [Example 548]	6.7	97.5	255 to 257	98.0
C/C(=N\NC(=O)c1ccccc1Br)c1cc(Br)cc(Br)c1O [Example 549]	0	97.3	214 to 216	94.0
C/C(=N\NC(=O)c1ccccc1O)c1cc(Br)cc(Br)c1O [Example 550]	4.6	97.2	305 to 306	63.0
COc1ccc(/C(C)=N/NC(=O)c2ccccc2)c(O)c1OC [Example 551]	1.7	96.0	154 to 155	90.0
COc1ccc(/C(C)=N/NC(=O)c2ccccc2C)c(O)c1OC [Example 552]	0	94.2	150 to 152	71.0
COc1ccc(/C(C)=N/NC(=O)c2cccc(C)c2)c(O)c1OC [Example 553]	0	93.2	158 to 162	88.0
COc1ccc(/C(C)=N/NC(=O)c2ccc(C)cc2)c(O)c1OC [Example 554]	0	97.3	245 to 249	100.0
COc1ccc(/C(C)=N/NC(=O)c2ccccc2Cl)c(O)c1OC [Example 555]	3.7	92.5	77 to 86	46.0
COc1ccc(/C(C)=N/NC(=O)c2cccc(Cl)c2)c(O)c1OC [Example 556]	7.7	95.9	194 to 201	75.0
COc1ccc(/C(C)=N/NC(=O)c2ccc(Cl)cc2)c(O)c1OC [Example 557]	13	95.7	230 to 235	90.0
COc1ccc(C(=O)N/N=C(\C)c2ccc(OC)c(OC)c2O)cc1 [Example 558]	3.8	95.7	230 to 232	80.0
COc1ccc(/C(C)=N/NC(=O)c2ccc(Br)cc2)c(O)c1OC [Example 559]	10	97.3	241 to 245	93.0

SMILES	inhibition of growth at 0.05 µg/mL [1] [%]	LEPTNO % Inhn. Plus Copper Observed [1] [%]	melting point [°C]	TLB % Control [2] [%]
COc1ccc(/C(C)=N/NC(=O)c2ccc(C(F)(F)F)cc2)c(O)c1OC [Example 560]	1.3	90.7	229 to 233	65.0
COc1ccc(/C(C)=N/NC(=O)c2ccccc2Br)c(O)c1OC [Example 561]	0	92.2	195 to 200	60.0
COc1ccc(/C(C)=N/NC(=O)c2ccccc2O)c(O)c1OC [Example 562]	1.4	97.3	279 to 297	91.0
O=C(N/N=C/c1cc(Cl)cc(Cl)c1O)c1cc2ccccc2cc1O [Example 563]	20.6	96.9	287 to 292	70.0
C/C(=N\NC(=O)c1cc2ccccc2cc1O)c1cc(Cl)cc(Cl)c1O [Example 564]	17.4	94.2	312 to 315	1.3
C/C(=N\NC(=O)c1cccc(C)c1O)c1cc(Cl)cc(Cl)c1O [Example 565]	12.2	97.4	278 to 279	98.0
COc1cc(O)c(/C(C)=N/NC(=O)c2ccc(C)cc2)c(OC)c1 [Example 566]	6.8	95.9	177 to 184	70.0
COc1cc(O)c(/C(C)=N/NC(=O)c2cccc(Cl)c2)c(OC)c1 [Example 567]	2.5	42.3	206 to 215	14.0
COc1cc(O)c(/C(C)=N/NC(=O)c2ccc(Cl)cc2)c(OC)c1 [Example 568]	8	94.3	136 to 140	61.0
COc1ccc(C(=O)N/N=C(\C)c2c(O)cc(OC)cc2OC)cc1 [Example 569]	6.1	15.8	143 to 146	70.0
COc1cc(O)c(/C(C)=N/NC(=O)c2ccc(Br)cc2)c(OC)c1 [Example 570]	3.2	97.2	134 to 159	39.0
COc1cc(O)c(/C(C)=N/NC(=O)c2ccc(C(F)(F)F)cc2)c(OC)c1 [Example 571]	0	84.7	131 to 133	31.0
C/C(=N\NC(=O)c1ccccc1)c1cc(F)cc(F)c1O [Example 572]	2.5	97.4	222 to 225	94.0
C/C(=N\NC(=O)c1ccccc1C)c1cc(F)cc(F)c1O [Example 573]	2.4	98.4	186 to 188	93.0
C/C(=N\NC(=O)c1cccc(C)c1)c1cc(F)cc(F)c1O [Example 574]	2.8	98.3	215 to 216	93.0
C/C(=N\NC(=O)c1ccc(C)cc1)c1cc(F)cc(F)c1O [Example 575]	0	98.1	220 to 222	100.0
C/C(=N\NC(=O)c1ccccc1Cl)c1cc(F)cc(F)c1O [Example 576]	0.7	97.9	205 to 209	90.0
C/C(=N\NC(=O)c1cccc(Cl)c1)c1cc(F)cc(F)c1O [Example 577]	1.9	97.9	279 to 282	100.0
COc1ccc(C(=O)N/N=C(\C)c2cc(F)cc(F)c2O)cc1 [Example 579]	0	97.6	243 to 247	97.0
C/C(=N\NC(=O)c1ccc(Br)cc1)c1cc(F)cc(F)c1O [Example 580]	3.1	98.1	268 to 270	97.0
C/C(=N\NC(=O)c1ccc(C(F)(F)F)cc1)c1cc(F)cc(F)c1O [Example 581]	13.6	98.2	287 to 291	93.0
